Test results from ChEMBL document CHEMBL1201862, “PubChem BioAssay data set” (2004).
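Growth conditions: 96-well plates. Treatment: test compound, 48 hours, 5 concentrations. Analysis: linear interpolation between bracketing concentrations; unreached endpoints set to highest concentration. At the GI50, growth is halved.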 The source made the active and inactive calls. Rule as the data show it: active = GI50 up to about 1.1 µM and inactive = higher.

Assays:
Test in all cases: growth of human tumour cells (NCI), 48 h
MCF7 = system: MCF7
MDA-N = system: MDA-N
MDA-MB-435 = system: MDA-MB-435
NCI-H460 = system: NCI-H460
MDA-MB-231 = system: MDA-MB-231
U-251 = system: U-251
Malme-3M = system: Malme-3M
MOLT-4 = system: MOLT-4
HCT-15 = system: HCT-15
LOX IMVI = system: LOX IMVI
M14 = system: M14
HCC 2998 = system: HCC 2998
CAKI-1 = system: CAKI-1
OVCAR-5 = system: OVCAR-5
ACHN = system: ACHN
UACC-62 = system: UACC-62
NCI-H226 = system: NCI-H226
KM12 = system: KM12
BT-549 = system: BT-549
OVCAR-4 = system: OVCAR-4

## Cc1c(N=C(S)Nc2ccc(Cl)cc2)c(=O)n(-c2ccccc2)n1C
MCF7
  GI50: > 100 µM (inactive)
MDA-N
  GI50: > 100 µM (inactive)
MDA-MB-435
  GI50: > 100 µM (inactive)
NCI-H460
  GI50: > 100 µM (inactive)
MDA-MB-231
  GI50: > 100 µM (inactive)
U-251
  GI50: > 100 µM (inactive)
Malme-3M
  GI50: > 100 µM (inactive)
MOLT-4
  GI50: > 100 µM (inactive)
HCT-15
  GI50: > 100 µM
LOX IMVI
  GI50: > 100 µM (inactive)
M14
  GI50: > 100 µM (inactive)
HCC 2998
  GI50: > 100 µM (inactive)
CAKI-1
  GI50: > 100 µM (inactive)
OVCAR-5
  GI50: > 100 µM (inactive)
ACHN
  GI50: > 100 µM (inactive)
UACC-62
  GI50: > 100 µM (inactive)
NCI-H226
  GI50: > 100 µM (inactive)
KM12
  GI50: > 100 µM (inactive)
BT-549
  GI50: > 100 µM (inactive)

## C1CSCCCSCCCSCCCSCCCSCCCSCCCSCCCSC1
MCF7
  GI50: > 100 µM (inactive)
MDA-N
  GI50: > 100 µM (inactive)
MDA-MB-435
  GI50: > 100 µM (inactive)
NCI-H460
  GI50: > 100 µM (inactive)
MDA-MB-231
  GI50: > 100 µM (inactive)
U-251
  GI50: > 100 µM (inactive)
Malme-3M
  GI50: > 100 µM (inactive)
MOLT-4
  GI50: > 100 µM (inactive)
HCT-15
  GI50: > 100 µM
LOX IMVI
  GI50: > 100 µM (inactive)
M14
  GI50: > 100 µM (inactive)
HCC 2998
  GI50: > 100 µM (inactive)
CAKI-1
  GI50: > 100 µM (inactive)
OVCAR-5
  GI50: > 100 µM (inactive)
ACHN
  GI50: > 100 µM (inactive)
OVCAR-4
  GI50: > 100 µM (inactive)
NCI-H226
  GI50: 82.2 µM (inactive)
KM12
  GI50: > 100 µM (inactive)
BT-549
  GI50: > 100 µM (inactive)

## Cc1ccc(NC(=O)CC(=O)N2N=C(c3ccccc3)C(/N=N/c3ccc(S(=O)(=O)CCOS(=O)(=O)O)cc3)C2=O)cc1 (stereo not drawn)
MCF7
  GI50: 65.9 µM (inactive)
MDA-N
  GI50: > 100 µM (inactive)
MDA-MB-435
  GI50: > 100 µM (inactive)
NCI-H460
  GI50: > 100 µM (inactive)
MDA-MB-231
  GI50: > 100 µM (inactive)
U-251
  GI50: 41.8 µM (inactive)
Malme-3M
  GI50: > 100 µM (inactive)
MOLT-4
  GI50: > 100 µM (inactive)
HCT-15
  GI50: > 100 µM
LOX IMVI
  GI50: > 100 µM (inactive)
M14
  GI50: > 100 µM (inactive)
HCC 2998
  GI50: > 100 µM (inactive)
CAKI-1
  GI50: > 100 µM (inactive)
OVCAR-5
  GI50: > 100 µM (inactive)
ACHN
  GI50: > 100 µM (inactive)
NCI-H226
  GI50: > 100 µM (inactive)
KM12
  GI50: 86.3 µM (inactive)
BT-549
  GI50: > 100 µM (inactive)

## CCOC(=O)C1CCC(=O)N1C(=O)c1ccccc1Cl (stereo not drawn)
MCF7
  GI50: > 100 µM (inactive)
MDA-N
  GI50: > 100 µM (inactive)
MDA-MB-435
  GI50: > 100 µM (inactive)
NCI-H460
  GI50: > 100 µM (inactive)
MDA-MB-231
  GI50: > 100 µM (inactive)
U-251
  GI50: > 100 µM (inactive)
Malme-3M
  GI50: > 100 µM (inactive)
MOLT-4
  GI50: > 100 µM (inactive)
HCT-15
  GI50: > 100 µM
LOX IMVI
  GI50: > 100 µM (inactive)
M14
  GI50: > 100 µM (inactive)
HCC 2998
  GI50: > 100 µM (inactive)
CAKI-1
  GI50: > 100 µM (inactive)
OVCAR-5
  GI50: > 100 µM (inactive)
ACHN
  GI50: > 100 µM (inactive)
UACC-62
  GI50: 27.4 µM (inactive)
NCI-H226
  GI50: > 100 µM (inactive)
KM12
  GI50: > 100 µM (inactive)
BT-549
  GI50: > 100 µM (inactive)

## CC(=O)C(O)N1C(=O)C=CC1=O (stereo not drawn)
MCF7
  GI50: > 25 µM (inactive)
MDA-N
  GI50: 18.6 µM (inactive)
MDA-MB-435
  GI50: 17.7 µM (inactive)
NCI-H460
  GI50: 3.58 µM (inactive)
MDA-MB-231
  GI50: 5.05 µM (inactive)
U-251
  GI50: 17.4 µM (inactive)
Malme-3M
  GI50: 2.19 µM (inactive)
MOLT-4
  GI50: 2.05 µM (inactive)
HCT-15
  GI50: 1.84 µM
LOX IMVI
  GI50: 4.43 µM (inactive)
M14
  GI50: 4.23 µM (inactive)
HCC 2998
  GI50: 21 µM (inactive)
CAKI-1
  GI50: 1.79 µM (inactive)
OVCAR-5
  GI50: 17.1 µM (inactive)
ACHN
  GI50: 2.61 µM (inactive)
UACC-62
  GI50: 16.8 µM (inactive)
NCI-H226
  GI50: 12.9 µM (inactive)
KM12
  GI50: 18.9 µM (inactive)
BT-549
  GI50: 8 µM (inactive)

## O=C(/C=C1\Sc2ccccc2N=C1CC(=O)c1ccccc1)c1ccccc1
MCF7
  GI50: 4.19 µM (inactive)
MDA-N
  GI50: 8.22 µM (inactive)
MDA-MB-435
  GI50: 6.52 µM (inactive)
NCI-H460
  GI50: 3.89 µM (inactive)
MDA-MB-231
  GI50: 6 µM (inactive)
U-251
  GI50: 2.01 µM (inactive)
Malme-3M
  GI50: 3.25 µM (inactive)
MOLT-4
  GI50: 1.79 µM (inactive)
HCT-15
  GI50: 2.65 µM
LOX IMVI
  GI50: 3 µM (inactive)
M14
  GI50: 6.14 µM (inactive)
HCC 2998
  GI50: 10.1 µM (inactive)
CAKI-1
  GI50: 4.12 µM (inactive)
OVCAR-5
  GI50: 12.8 µM (inactive)
ACHN
  GI50: 4.39 µM (inactive)
OVCAR-4
  GI50: 4.99 µM (inactive)
NCI-H226
  GI50: 7.1 µM (inactive)
KM12
  GI50: 4.76 µM (inactive)
BT-549
  GI50: 8.13 µM (inactive)
